Measurements taken from US20250145640A1, “2,2-DIFLUORO-5H-[1,3]DIOXOLO[4,5-F]ISOINDOL-7-ONE DERIVATIVES AS PESTICIDES” (SYNGENTA CROP PROTECTION AG, priority 2021, published 2025).

Legend:
Format in all cases: in vivo
[1] = test system: Plutella xylostella (Diamond Back Moth); test: Example B5: Activity against Plutella xylostella, artificial diet in 24-well microtiter plates; settings: 192 h, application rate 200 ppm, eggs, assessed 8 days after infestation, read-out: effect in at least one of the two categories (mortality or growth inhibition)
Description: Example B5: Activity Against Plutella xylostella (Diamond Back Moth)
24-well microtiter plates with artificial diet were treated with aqueous test solutions prepared from 10′000 ppm DMSO stock solutions by pipetting. After drying, Plutella eggs were pipetted through a plastic stencil onto a gel blotting paper and the plate was closed with it. The samples were assessed for mortality and growth inhibition in comparison to untreated samples 8 days after infestation.

[2] = test system: Chilo suppressalis (Striped Rice Stemborer); test: Example B1: Activity against Chilo suppressalis, artificial diet in 24-well microtiter plates; settings: 144 h, application rate 200 ppm, L2 larvae, assessed 6 days after infestation, read-out: control (at least one of mortality, anti-feedant effect, growth inhibition)
Description: Example B1: Activity Against Chilo suppressalis (Striped Rice Stemborer)
24-well microtiter plates with artificial diet were treated with aqueous test solutions prepared from 10′000 ppm DMSO stock solutions by pipetting. After drying, the plates were infested with L2 larvae (6-8 per well). The samples were assessed for mortality, anti-feeding effect, and growth inhibition in comparison to untreated samples 6 days after infestation. Control of Chilo suppressalis by a test sample is given when at least one of the categories mortality, anti-feedant effect, and growth inhibition is higher than the untreated sample.

[3] = test system: Spodoptera littoralis (Egyptian Cotton Leaf Worm); test: Example B6: Activity against Spodoptera littoralis, sprayed cotton leaf discs on agar; settings: foliar, 72 h, application rate 200 ppm, L1 larvae, assessed 3 days after infestation, read-out: control (at least one of mortality, anti-feedant effect, growth inhibition)
Description: Example B6: Activity Against Spodoptera littoralis (Egyptian Cotton Leaf Worm)
Cotton leaf discs were placed onto agar in 24-well microtiter plates and sprayed with aqueous test solutions prepared from 10′000 ppm DMSO stock solutions. After drying the leaf discs were infested with five L1 larvae. The samples were assessed for mortality, anti-feeding effect, and growth inhibition in comparison to untreated samples 3 days after infestation. Control of Spodoptera littoralis by a test sample is given when at least one of the categories mortality, anti-feedant effect, and growth inhibition is higher than the untreated sample.

[4] = test system: Myzus persicae (Green peach aphid); test: Example B4: Activity against Myzus persicae, feeding/contact activity on sunflower leaf discs; settings: foliar, 144 h, application rate 200 ppm, aphid population of mixed ages, assessed 6 days after infestation
Description: Example B4: Activity against Myzus persicae (Green peach aphid) Feeding/Contact activity Sunflower leaf discs were placed onto agar in a 24-well microtiter plate and sprayed with aqueous test solutions prepared from 10′000 ppm DMSO stock solutions. After drying, the leaf discs were infested with an aphid population of mixed ages. The samples were assessed for mortality 6 days after infestation.

[5] = test system: Diabrotica Balteata (Corn Root Worm); test: Example B2: Activity against Diabrotica balteata, sprayed maize sprouts on agar; settings: 96 h, application rate 200 ppm, L2 larvae, assessed 4 days after infestation, read-out: effect in at least one of the two categories (mortality or growth inhibition)
Description: Example B2: Activity Against Diabrotica Balteata (Corn Root Worm)
Maize sprouts placed onto an agar layer in 24-well microtiter plates were treated with aqueous test solutions prepared from 10′000 ppm DMSO stock solutions by spraying. After drying, the plates were infested with L2 larvae (6 to 10 per well). The samples were assessed for mortality and growth inhibition in comparison to untreated samples 4 days after infestation.

[6] = test system: Euschistus heros (Neotropical Brown Stink Bug); test: Example B3: Activity against Euschistus heros, sprayed soybean leaves on agar; settings: 120 h, application rate 200 ppm, N2 nymphs, assessed 5 days after infestation, read-out: effect in at least one of the two categories (mortality or growth inhibition)
Description: Example B3: Activity Against Euschistus heros (Neotropical Brown Stink Bug)
Soybean leaves on agar in 24-well microtiter plates were sprayed with aqueous test solutions prepared from 10′000 ppm DMSO stock solutions. After drying the leaves were infested with N2 nymphs. The samples were assessed for mortality and growth inhibition in comparison to untreated samples 5 days after infestation.

CCS(=O)(=O)c1c(N2Cc3cc4c(cc3C2=O)OC(F)(F)O4)nc2ccc(C(F)(F)F)cn12 [P1, 6-[3-ethylsulfonyl-6-(trifluoromethyl)imidazo[1,2-a]pyridin-2-yl]-2,2-difluoro-5H-[1,3]dioxolo[4,5-f]isoindol-7-one]
≥ 80%: percent effect (mortality or growth inhibition) at 200 ppm [1] | control (mortality, anti-feedant effect or growth inhibition) at 200 ppm [2] | percent control (mortality, anti-feedant effect or growth inhibition) at 200 ppm [3] | mortality at 200 ppm [4] | percent effect (mortality or growth inhibition) at 200 ppm [5]

CCS(=O)(=O)c1cc2ccccc2nc1N1Cc2cc3c(cc2C1=O)OC(F)(F)O3 [P2, 6-(3-ethylsulfonyl-2-quinolyl)-2,2-difluoro-5H-[1,3]dioxolo[4,5-f]isoindol-7-one]
≥ 80%: percent effect (mortality or growth inhibition) at 200 ppm [1] | percent control (mortality, anti-feedant effect or growth inhibition) at 200 ppm [3] | mortality at 200 ppm [4] | percent effect (mortality or growth inhibition) at 200 ppm [5] | percent effect (mortality or growth inhibition) at 200 ppm [6]

CCS(=O)(=O)c1c(N2Cc3cc4c(cc3C2=O)OC(F)(F)O4)nn2cc(C(F)(F)F)ccc12 [P3, 6-[3-ethylsulfonyl-6-(trifluoromethyl)pyrazolo[1,5-a]pyridin-2-yl]-2,2-difluoro-5H-[1,3]dioxolo[4,5-f]isoindol-7-one]
≥ 80%: percent effect (mortality or growth inhibition) at 200 ppm [1] | control (mortality, anti-feedant effect or growth inhibition) at 200 ppm [2] | percent control (mortality, anti-feedant effect or growth inhibition) at 200 ppm [3] | mortality at 200 ppm [4] | percent effect (mortality or growth inhibition) at 200 ppm [5]

CCS(=O)(=O)c1c(N2Cc3cc4c(cc3C2=O)OC(F)(F)O4)nc2cc(C(F)(F)F)ccn12 [P5, 6-[3-ethylsulfonyl-7-(trifluoromethyl)imidazo[1,2-a]pyridin-2-yl]-2,2-difluoro-5H-[1,3]dioxolo[4,5-f]isoindol-7-one]
≥ 80%: percent effect (mortality or growth inhibition) at 200 ppm [1] | control (mortality, anti-feedant effect or growth inhibition) at 200 ppm [2] | percent control (mortality, anti-feedant effect or growth inhibition) at 200 ppm [3] | percent effect (mortality or growth inhibition) at 200 ppm [5]

CCS(=O)(=O)c1c(N2Cc3cc4c(cc3C2=O)OC(F)(F)O4)nn2ccc(C(F)(F)F)cc12 [P6, 6-[3-ethylsulfonyl-5-(trifluoromethyl)pyrazolo[1,5-a]pyridin-2-yl]-2,2-difluoro-5H-[1,3]dioxolo[4,5-f]isoindol-7-one]
≥ 80%: percent effect (mortality or growth inhibition) at 200 ppm [1] | control (mortality, anti-feedant effect or growth inhibition) at 200 ppm [2] | percent control (mortality, anti-feedant effect or growth inhibition) at 200 ppm [3] | percent effect (mortality or growth inhibition) at 200 ppm [5]

CCS(=O)(=O)c1c(N2Cc3cc4c(cc3C2=O)OC(F)(F)O4)nc2ccc(C(C)(F)F)cn12 [P7, 6-[6-(1,1-difluoroethyl)-3-ethylsulfonyl-imidazo[1,2-a]pyridin-2-yl]-2,2-difluoro-5H-[1,3]dioxolo[4,5-f]isoindol-7-one]
≥ 80%: percent effect (mortality or growth inhibition) at 200 ppm [1] | control (mortality, anti-feedant effect or growth inhibition) at 200 ppm [2] | percent control (mortality, anti-feedant effect or growth inhibition) at 200 ppm [3] | percent effect (mortality or growth inhibition) at 200 ppm [5]

CCS(=O)(=O)c1c(N2Cc3cc4c(cc3C2=O)OC(F)(F)O4)nc2cc(C(C)(F)F)ccn12 [P8, 6-[7-(1,1-difluoroethyl)-3-ethylsulfonyl-imidazo[1,2-a]pyridin-2-yl]-2,2-difluoro-5H-[1,3]dioxolo[4,5-f]isoindol-7-one]
≥ 80%: percent effect (mortality or growth inhibition) at 200 ppm [1] | control (mortality, anti-feedant effect or growth inhibition) at 200 ppm [2] | percent control (mortality, anti-feedant effect or growth inhibition) at 200 ppm [3] | percent effect (mortality or growth inhibition) at 200 ppm [5]

CCS(=O)(=O)c1c(N2Cc3cc4c(cc3C2=O)OC(F)(F)O4)nc2cc(Br)ccn12 [P9, 6-(7-bromo-3-ethylsulfonyl-imidazo[1,2-a]pyridin-2-yl)-2,2-difluoro-5H-[1,3]dioxolo[4,5-f]isoindol-7-one]
≥ 80%: percent effect (mortality or growth inhibition) at 200 ppm [1] | control (mortality, anti-feedant effect or growth inhibition) at 200 ppm [2] | percent control (mortality, anti-feedant effect or growth inhibition) at 200 ppm [3] | percent effect (mortality or growth inhibition) at 200 ppm [5]

CCS(=O)(=O)c1c(N2Cc3cc4c(cc3C2=O)OC(F)(F)O4)nc2ccc(Br)cn12 [P10, 6-(6-bromo-3-ethylsulfonyl-imidazo[1,2-a]pyridin-2-yl)-2,2-difluoro-5H-[1,3]dioxolo[4,5-f]isoindol-7-one]
≥ 80%: control (mortality, anti-feedant effect or growth inhibition) at 200 ppm [2]

CCS(=O)(=O)c1c(N2Cc3cc4c(cc3C2=O)OC(F)(F)O4)nc2ccc(Cl)cn12 [P11, 6-(6-chloro-3-ethylsulfonyl-imidazo[1,2-a]pyridin-2-yl)-2,2-difluoro-5H-[1,3]dioxolo[4,5-f]isoindol-7-one]
≥ 80%: percent effect (mortality or growth inhibition) at 200 ppm [1] | control (mortality, anti-feedant effect or growth inhibition) at 200 ppm [2] | percent control (mortality, anti-feedant effect or growth inhibition) at 200 ppm [3] | percent effect (mortality or growth inhibition) at 200 ppm [5] | percent effect (mortality or growth inhibition) at 200 ppm [6]

CCS(=O)(=O)c1c(N2Cc3cc4c(cc3C2=O)OC(F)(F)O4)nn2cc(Br)ccc12 [P12, 6-(6-bromo-3-ethylsulfonyl-pyrazolo[1,5-a]pyridin-2-yl)-2,2-difluoro-5H-[1,3]dioxolo[4,5-f]isoindol-7-one]
≥ 80%: percent effect (mortality or growth inhibition) at 200 ppm [1] | control (mortality, anti-feedant effect or growth inhibition) at 200 ppm [2] | percent control (mortality, anti-feedant effect or growth inhibition) at 200 ppm [3] | mortality at 200 ppm [4] | percent effect (mortality or growth inhibition) at 200 ppm [5]

CCS(=O)(=O)c1c(N2Cc3cc4c(cc3C2=O)OC(F)(F)O4)nc2cc(Cl)ccn12 [P13, 6-(7-chloro-3-ethylsulfonyl-imidazo[1,2-a]pyridin-2-yl)-2,2-difluoro-5H-[1,3]dioxolo[4,5-f]isoindol-7-one]
≥ 80%: percent effect (mortality or growth inhibition) at 200 ppm [1] | control (mortality, anti-feedant effect or growth inhibition) at 200 ppm [2] | percent control (mortality, anti-feedant effect or growth inhibition) at 200 ppm [3] | percent effect (mortality or growth inhibition) at 200 ppm [5]

CCS(=O)(=O)c1c(N2Cc3cc4c(cc3C2=O)OC(F)(F)O4)nn2cc(Cl)ccc12 [P14, 6-(6-chloro-3-ethylsulfonyl-pyrazolo[1,5-a]pyridin-2-yl)-2,2-difluoro-5H-[1,3]dioxolo[4,5-f]isoindol-7-one]
≥ 80%: percent effect (mortality or growth inhibition) at 200 ppm [1] | control (mortality, anti-feedant effect or growth inhibition) at 200 ppm [2] | percent control (mortality, anti-feedant effect or growth inhibition) at 200 ppm [3] | mortality at 200 ppm [4] | percent effect (mortality or growth inhibition) at 200 ppm [5]

CCS(=O)(=O)c1c(N2Cc3cc4c(cc3C2=O)OC(F)(F)O4)nn2ccc(Cl)cc12 [P15, 6-(5-chloro-3-ethylsulfonyl-pyrazolo[1,5-a]pyridin-2-yl)-2,2-difluoro-5H-[1,3]dioxolo[4,5-f]isoindol-7-one]
≥ 80%: percent effect (mortality or growth inhibition) at 200 ppm [1] | control (mortality, anti-feedant effect or growth inhibition) at 200 ppm [2] | percent control (mortality, anti-feedant effect or growth inhibition) at 200 ppm [3] | percent effect (mortality or growth inhibition) at 200 ppm [5] | percent effect (mortality or growth inhibition) at 200 ppm [6]

CCS(=O)(=O)c1c(N2Cc3cc4c(cc3C2=O)OC(F)(F)O4)nc2cc(I)ccn12 [P16, 6-(3-ethylsulfonyl-7-iodo-imidazo[1,2-a]pyridin-2-yl)-2,2-difluoro-5H-[1,3]dioxolo[4,5-f]isoindol-7-one]
≥ 80%: percent effect (mortality or growth inhibition) at 200 ppm [1] | control (mortality, anti-feedant effect or growth inhibition) at 200 ppm [2] | percent control (mortality, anti-feedant effect or growth inhibition) at 200 ppm [3] | percent effect (mortality or growth inhibition) at 200 ppm [5]

CCS(=O)(=O)c1c(N2Cc3cc4c(cc3C2=O)OC(F)(F)O4)nc2ccc(I)cn12 [P17, 6-(3-ethylsulfonyl-6-iodo-imidazo[1,2-a]pyridin-2-yl)-2,2-difluoro-5H-[1,3]dioxolo[4,5-f]isoindol-7-one]
≥ 80%: percent effect (mortality or growth inhibition) at 200 ppm [1] | control (mortality, anti-feedant effect or growth inhibition) at 200 ppm [2] | percent control (mortality, anti-feedant effect or growth inhibition) at 200 ppm [3] | percent effect (mortality or growth inhibition) at 200 ppm [5]
